# Test: Potency code of Table 2 (assay not stated)
row,SMILES,Potency code
1,Oc1cc(Nc2ccc(F)c(F)c2)ccc1-c1cc(C(F)(F)F)[nH]n1 [NUCC-0200559],++ (30-40 ++)
2,Cn1nc(-c2ccc(Nc3ccc(F)c(F)c3)cc2O)cc1C(F)(F)F [NUCC-0200560],+ (>40 +)
3,Oc1cc(Nc2ccc3c(c2)OCO3)ccc1-c1cc(C(F)(F)F)[nH]n1 [NUCC-0200561],+ (>40 +)
4,Cn1nc(-c2ccc(Nc3ccc4c(c3)OCO4)cc2O)cc1C(F)(F)F [NUCC-0200562],+ (>40 +)
5,O=CNc1ccc(Nc2ccc(-c3cc(C(F)(F)F)[nH]n3)c(O)c2)cc1 [NUCC-0200563],+ (>40 +)
6,Cn1nc(-c2ccc(Nc3ccc(NC=O)cc3)cc2O)cc1C(F)(F)F [NUCC-0200564],+ (>40 +)
7,CN1CCN(c2ccc(-c3cc(C(F)(F)F)[nH]n3)c(O)c2)CC1 [NUCC-0200567],+ (>40 +)
8,CN1CCN(c2ccc(-c3cc(C(F)(F)F)n(C)n3)c(O)c2)CC1 [NUCC-0200568],+ (>40 +)
9,Oc1cc(Nc2ccc(-n3ccnc3)cc2)ccc1-c1cc(C(F)(F)F)[nH]n1 [NUCC-0200569],+ (>40 +)
10,Oc1cccc(COc2ccc(Cl)cc2)c1-c1cc(C(F)(F)F)n[nH]1 [NUCC-0200570],+ (>40 +)
11,N#Cc1cccc(-c2c(C(F)(F)F)n[nH]c2-c2cc(OCc3ccc(Cl)cc3)ccc2O)c1 [NUCC-0200571],+ (>40 +)
12,Cc1ccc(-c2c(C(F)(F)F)n[nH]c2-c2cc(OCc3ccc(Cl)cc3)ccc2O)cc1 [NUCC-0200572],+ (>40 +)
13,Oc1ccc(OCc2ccc(Cl)cc2)cc1-c1cc(C(F)(F)F)n[nH]1 [NUCC-0200573],+ (>40 +)
14,Oc1ccccc1-c1cc(C(F)(F)F)n[nH]1 [NUCC-0200574],+ (>40 +)
15,Oc1ccc(OCc2ccc(Cl)cc2)cc1-c1[nH]nc(C(F)(F)F)c1-c1ccc(F)cc1 [NUCC-0200575],++++ (<10 ++++)
16,Oc1ccc(OCc2ccc(Cl)cc2)cc1-c1[nH]nc(C(F)(F)F)c1-c1ccccc1Cl [NUCC-0200576],++++ (<10 ++++)
17,NC(=O)c1cc(-c2ccc(Nc3ccc(Cl)cc3)cc2O)n[nH]1 [NUCC-0200677],+ (>40 +)
18,N#Cc1cc(-c2ccc(Nc3ccc(Cl)cc3)cc2O)n[nH]1 [NUCC-0200678],+ (>40 +)
19,Oc1cc(Oc2ccc(Cl)cc2)ccc1-c1cc(C(F)(F)F)[nH]n1 [NUCC-0200679],++ (30-40 ++)
20,CCc1ccc(Oc2c(-c3ccc(Nc4ccc(Cl)cc4)cc3O)n[nH]c2C(F)(F)F)cc1 [NUCC-0200680],+ (>40 +)
21,CCc1ccc(Oc2c(-c3ccc(Oc4ccc(Cl)cc4)cc3O)n[nH]c2C(F)(F)F)cc1 [NUCC-0200681],++++ (<10 ++++)
22,CCc1ccc(Oc2c(-c3ccc(O)cc3N)nn(C)c2C(F)(F)F)cc1 [NUCC-0200682],+ (>40 +)
23,CCc1ccc(Oc2c(-c3ccccc3O)n[nH]c2C(F)(F)F)cc1 [NUCC-0200683],+++ (10-30 +++)
24,CCc1ccc(Oc2c(-c3ccccc3O)nn(C)c2C(F)(F)F)cc1 [NUCC-0200684],+ (>40 +)
25,Oc1ccccc1C1=NNC(c2ccccc2)C1 (centres unmarked) [NUCC-0200685],+ (>40 +)

row,SMILES,Potency code
1,Oc1c(-c2cc(C(F)(F)F)n[nH]2)ccc(OCc2ccc(Cl)cc2)c1-c1ccc2c(c1)OCCO2 [NUCC-0200686],+ (>40 +)
2,Cn1nc(C(F)(F)F)cc1-c1ccc(O)cn1 [NUCC-0200687],+ (>40 +)
3,Cn1nc(C(F)(F)F)cc1-c1ccc(N)cn1 [NUCC-0200688],+ (>40 +)
4,Cn1nc(C(F)(F)F)cc1-c1cnc(O)cn1 [NUCC-0200689],+ (>40 +)
5,Cn1nc(C(F)(F)F)cc1-c1ccc(OCc2ccc(Cl)cc2)cn1 [NUCC-0200690],+ (>40 +)
6,Cn1nc(C(F)(F)F)cc1-c1ccc(NCc2ccc(Cl)cc2)cn1 [NUCC-0200691],+ (>40 +)
7,Cn1nc(C(F)(F)F)cc1-c1cnc(OCc2ccc(Cl)cc2)cn1 [NUCC-0200692],+ (>40 +)
8,Oc1cc(Nc2ccc(Cl)c(Cl)c2)ccc1-c1cc(C(F)(F)F)[nH]n1 [NUCC-0200721],++++ (<10 ++++)
9,c1ccc(COc2ccccc2-c2nn[nH]c2-c2ccccc2)cc1 [NUCC-0200722],+ (>40 +)
10,Cn1nc(C(F)(F)F)cc1-c1ccc(O)c(-c2cc(C(F)(F)F)cc(C(F)(F)F)c2)c1O [NUCC-0200723],++ (30-40 ++)
11,Cn1nc(-c2ccc(O)c(-c3cc(C(F)(F)F)cc(C(F)(F)F)c3)c2O)cc1C(F)(F)F [NUCC-0200724],+ (>40 +)
12,Oc1c(-c2cc(C(F)(F)F)[nH]n2)ccc(OCc2ccc(Cl)cc2)c1-c1ccc(C(F)(F)F)cc1 [NUCC-0200725],+ (>40 +)
13,Cn1nc(C(F)(F)F)cc1-c1ccc(OCc2ccc(Cl)cc2)c(-c2ccc(C(F)(F)F)cc2)c1O [NUCC-0200726],+ (>40 +)
14,Cn1nc(-c2ccc(OCc3ccc(Cl)cc3)c(-c3ccc(C(F)(F)F)cc3)c2O)cc1C(F)(F)F [NUCC-0200727],+ (>40 +)
15,Oc1c(-c2cc(C(F)(F)F)[nH]n2)ccc(OCc2ccc(Cl)cc2)c1-c1ccc(C(F)(F)F)c(Cl)c1 [NUCC-0200728],+ (>40 +)
16,Cn1nc(-c2ccc(OCc3ccc(Cl)cc3)c(-c3ccc(C(F)(F)F)c(Cl)c3)c2O)cc1C(F)(F)F [NUCC-0200729],+ (>40 +)
17,Oc1c(-c2cc(C(F)(F)F)[nH]n2)ccc(OCc2ccc(Cl)cc2)c1-c1cccc(C(F)(F)F)c1 [NUCC-0200730],+ (>40 +)
18,Cn1nc(-c2ccc(OCc3ccc(Cl)cc3)c(-c3cccc(C(F)(F)F)c3)c2O)cc1C(F)(F)F [NUCC-0200731],+ (>40 +)
19,Oc1c(-c2cc(C(F)(F)F)[nH]n2)ccc(OCc2ccc(Cl)cc2)c1-c1ccc(Cl)c(C(F)(F)F)c1 [NUCC-0200732],+ (>40 +)
20,Cn1nc(-c2ccc(OCc3ccc(Cl)cc3)c(-c3ccc(Cl)c(C(F)(F)F)c3)c2O)cc1C(F)(F)F [NUCC-0200733],+ (>40 +)
21,Oc1c(-c2cc(C(F)(F)F)[nH]n2)ccc(OCc2ccc(Cl)cc2)c1-c1ccc(F)c(C(F)(F)F)c1 [NUCC-0200734],+ (>40 +)
22,Cn1nc(C(F)(F)F)cc1-c1ccc(OCc2ccc(Cl)cc2)c(-c2ccc(F)c(C(F)(F)F)c2)c1O [NUCC-0200735],+ (>40 +)
23,Cn1nc(-c2ccc(OCc3ccc(Cl)cc3)c(-c3ccc(F)c(C(F)(F)F)c3)c2O)cc1C(F)(F)F [NUCC-0200736],+ (>40 +)
24,Oc1c(-c2cc(C(F)(F)F)[nH]n2)ccc(OCc2ccc(Cl)cc2)c1-c1ccc(C(F)(F)F)cc1Cl [NUCC-0200737],+ (>40 +)
25,Cn1nc(C(F)(F)F)cc1-c1ccc(OCc2ccc(Cl)cc2)c(-c2ccc(C(F)(F)F)cc2Cl)c1O [NUCC-0200738],+++ (10-30 +++)

row,SMILES,Potency code
1,CCCc1c(OCc2ccc(Cl)cc2)ccc(-c2cc(C(F)(F)F)n[nH]2)c1O [NUCC-0200740],+ (>40 +)
2,Cn1cc(-c2ccc(OCc3ccc(Cl)cc3)cn2)c(C(F)(F)F)n1 [NUCC-0200741],+ (>40 +)
3,Cn1cc(-c2ccc(NCc3ccc(Cl)cc3)cn2)c(C(F)(F)F)n1 [NUCC-0200742],+ (>40 +)
4,Cn1cc(-c2ccc(OCc3ccc(Cl)cc3)cc2F)c(C(F)(F)F)n1 [NUCC-0200743],+ (>40 +)
5,Cn1nc(C(F)(F)F)cc1-c1ccc(OCc2ccc(Cl)cc2)cc1Cl [NUCC-0200744],+ (>40 +)
6,Cn1nc(C(F)(F)F)cc1-c1ccc(OCc2ccc(Cl)cc2)cc1N [NUCC-0200745],+ (>40 +)
7,Cn1cc(-c2ccc(OCc3ccc(Cl)cc3)cc2N)c(C(F)(F)F)n1 [NUCC-0200746],+ (>40 +)
8,Cn1cc(-c2cnc(OCc3ccc(Cl)cc3)cn2)c(C(F)(F)F)n1 [NUCC-0200747],+ (>40 +)
9,Cn1nc(C(F)(F)F)cc1-c1ccc(OCc2ccc(Cl)cc2)cc1C#N [NUCC-0200812],+ (>40 +)
10,Cn1cc(-c2ccc(OCc3ccc(Cl)cc3)cc2CO)c(C(F)(F)F)n1 [NUCC-0200813],+ (>40 +)
11,Cn1cc(-c2ccc(OCc3ccc(Cl)cc3)cc2Cl)c(C(F)(F)F)n1 [NUCC-0200814],+ (>40 +)
12,Cn1cc(-c2ccc(OCc3ccc(Cl)cc3)cc2C=O)c(C(F)(F)F)n1 [NUCC-0200815],+ (>40 +)
13,Cn1nc(C(F)(F)F)cc1-c1ccc(OCc2ccc(Cl)cc2)cc1C(N)=O [NUCC-0200816],+ (>40 +)
14,Cn1nc(C(F)(F)F)cc1-c1ccc(NC(=O)c2ccc(Cl)cc2)cc1O [NUCC-0200817],+ (>40 +)
15,COC(=O)c1cc(-c2ccc(OCc3ccc(Cl)cc3)c(-c3cc(C(F)(F)F)cc(C(F)(F)F)c3)c2O)nn1C [NUCC-0200970],+ (>40 +)
16,Cn1nc(-c2ccc(OCc3ccc(Cl)cc3)c(-c3cc(C(F)(F)F)cc(C(F)(F)F)c3)c2O)cc1C(=O)O [NUCC-0200971],++++ (<10 ++++)
17,O=C(O)c1cc(-c2ccc(OCc3ccc(Cl)cc3)c(-c3cc(C(F)(F)F)cc(C(F)(F)F)c3)c2O)n[nH]1 [NUCC-0200973],++++ (<10 ++++)
18,Cn1nc(C(F)(F)F)cc1-c1ccc(OCc2ccc(Cl)cc2)c(-c2cccc(C(F)(F)F)c2)c1O [NUCC-0200974],+ (>40 +)
19,Cn1nc(C(F)(F)F)cc1-c1ccc(OCc2ccc(Cl)cc2)c(-c2ccc(Cl)c(C(F)(F)F)c2)c1O [NUCC-0200975],+ (>40 +)
20,Cn1nc(C(F)(F)F)cc1-c1ccc(OCc2ccc(Cl)cc2)cc1F [NUCC-0200977],+ (>40 +)
21,Cn1nc(C(F)(F)F)cc1-c1ccc(OCc2ccc(Cl)cc2)cc1CO [NUCC-0200978],+ (>40 +)
22,Cn1nc(C(F)(F)F)c(Br)c1-c1ccc(OCc2ccc(Cl)cc2)cc1C#N [NUCC-0200979],+ (>40 +)
23,Cn1nc(-c2ccc(OCc3cccnc3)c(-c3cc(C(F)(F)F)cc(C(F)(F)F)c3)c2O)cc1C(F)(F)F [NUCC-0201023],+ (>40 +)
24,Oc1c(-c2cc(C(F)(F)F)n[nH]2)ccc(OCCc2ccc(Cl)cc2)c1-c1cc(C(F)(F)F)cc(C(F)(F)F)c1 [NUCC-0201024],++++ (<10 ++++)

# From patent US20200392116A1, “SUBSTITUTED HETEROCYCLES AS c-MYC TARGETING AGENTS” (NORTHWESTERN UNIVERSITY, priority 2019, published 2020)
